pEC50, pIC50, pKd: −log10 of the molar value. Calls of active or inactive are those of the source. The rule behind the calls is not given here.
Tests used:
[1] = molecular target: Matrix protein 2 (Influenza A virus (A/Udorn/307/1972(H3N2)), UniProt P0DOF8); assay: Inhibition of Influenza A virus A/Udorn/72 wild-type M2 proton channel expressed in Xenopus laevis oocytes assessed as blockade of inward currents at pH 5.5 after 2 mins by two-electrode voltage clamp assay; assay type: cell-based, Influenza A virus (A/udorn/1972(H3N2))
Sequence of Matrix protein 2 (Influenza A virus (A/Udorn/307/1972(H3N2)), UniProt P0DOF8) (P0DOF8 whole entry): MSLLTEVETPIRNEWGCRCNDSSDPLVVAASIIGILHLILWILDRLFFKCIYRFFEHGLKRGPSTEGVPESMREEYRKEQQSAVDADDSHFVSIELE

Influenza A virus [2] = assay: Antiviral activity against Influenza A virus (A/Hong Kong/68(H3N2)) infected in MDCK cells assessed as reduction in virus-induced cytopathic effect by crystal violet staining based light-microscopic analysis; assay type: functional, organism-based
Influenza A virus [3] = assay: Antiviral activity against Influenza A virus A/Udorn/72 H3N2 infected in MDCK cells assessed as reduction in plaque formation by crystal violet staining based assay; assay type: functional, organism-based; settings: Influenza A virus (A/udorn/1972(H3N2))
Influenza A virus [4] = assay: Antiviral activity against Influenza A virus A/WSN/33 H1N1 infected in MDCK cells assessed as reduction in virus-induced cytopathic effect by crystal violet staining based light-microscopic analysis; assay type: functional, organism-based; settings: A/WSN/1933(H1N1)
[5] = Cytotoxicity against MDCK cells after 72 hrs by crystal violet staining based spectrophotometric method; assay type: cell-based, Canis lupus familiaris; settings: dog
[6] = molecular target: Matrix protein 2 (Influenza A virus (A/Udorn/307/1972(H3N2)), UniProt P0DOF8); assay: Inhibition of Influenza A virus A/Udorn/72 wild-type M2 proton channel expressed in Xenopus laevis oocytes assessed as blockade of inward currents at pH 5.5 after 5 mins by two-electrode voltage clamp assay; assay type: cell-based, Influenza A virus (A/udorn/1972(H3N2))
Influenza A virus [7] = assay: Antiviral activity against Influenza A virus A/Udorn/72 H3N2 infected in MDCK cells assessed as reduction in virus-induced cytopathic effect by crystal violet staining based light-microscopic analysis; assay type: functional, organism-based, Influenza A virus (A/udorn/1972(H3N2))
[8] = molecular target: Matrix protein 2 (Influenza A virus (A/Udorn/307/1972(H3N2)), UniProt P0DOF8); assay: Binding affinity to Influenza A virus A/Udorn/72 wild-type M2 proton channel by isothermal calorimetric titration; parameters: species or system Influenza A virus (A/udorn/1972(H3N2))
[9] = molecular target: Matrix protein 2 (Influenza A virus (A/Udorn/307/1972(H3N2)), UniProt P0DOF8); assay: Binding affinity to Influenza A virus A/Udorn/72 wild-type M2 proton channel expressed in Xenopus laevis oocytes at pH 5.5 by two-electrode voltage clamp assay; assay type: cell-based, Influenza A virus (A/udorn/1972(H3N2))
Influenza A virus [10] = assay: Antiviral activity against Influenza A virus A/Udorn/72 H3N2 infected in MDCK cells assessed as reduction in plaque size by crystal violet staining based assay; assay type: functional, organism-based; settings: Influenza A virus (A/udorn/1972(H3N2))

## CCC(N)(CC)C12CC3CC(CC(C3)C1)C2
[1]
  pIC50: 4.61
Influenza A virus [2]
  pEC50: 6.34
Influenza A virus [3]
  Activity: Active
Influenza A virus [4]
  pEC50: < 4.00
[5]
  CC50 at 72 h: > 100 µM
[6]
  pIC50: 4.88
Influenza A virus [7]
  pEC50: 6.39
[8]
  pKd: 5.34

## NC12CC3CC(CC(C3)C1)C2 [AMANTADINE]
Influenza A virus [3]
  Activity: Active
Influenza A virus [4]
  pEC50: < 4.00
[5]
  CC50 at 72 h: > 100 µM
Influenza A virus [7]
  pEC50: 6.11

## C[C@@H](N)C12CC3CC(CC(C3)C1)C2
Influenza A virus [3]
  Activity: Active
Influenza A virus [4]
  pEC50: < 4.00
[5]
  CC50 at 72 h: > 100 µM
Influenza A virus [7]
  pEC50: 7.30

## C[C@H](N)C12CC3CC(CC(C3)C1)C2
Influenza A virus [3]
  Activity: Active
Influenza A virus [4]
  pEC50: < 4.00
[5]
  CC50 at 72 h: > 100 µM
Influenza A virus [7]
  pEC50: 7.22

## CCOC(=O)C1=C[C@@H](OC(CC)CC)[C@H](NC(C)=O)[C@@H](N)C1 [OSELTAMIVIR]
Influenza A virus [2]
  pEC50: 8.70
Influenza A virus [4]
  pEC50: 7.52
[5]
  CC50 at 72 h: > 100 µM
Influenza A virus [7]
  pEC50: 9.00

## CC(C)(N)C12CC3CC(CC(C3)C1)C2
[9]
  pKd: 4.89
[1]
  pIC50: 5.03
Influenza A virus [2]
  pEC50: 7.92
Influenza A virus [3]
  Activity: Active
Influenza A virus [4]
  pEC50: < 4.00
[5]
  CC50 at 72 h: > 100 µM
[6]
  pIC50: 5.40
Influenza A virus [7]
  pEC50: 8.00
[8]
  pKd: 6.89

## CCCC(N)(CCC)C12CC3CC(CC(C3)C1)C2
[9]
  pKd: 4.06
Influenza A virus [2]
  pEC50: 6.35
Influenza A virus [3]
  Activity: inactive
Influenza A virus [4]
  pEC50: < 4.00
[5]
  CC50 at 72 h: 57.3 µM
Influenza A virus [7]
  pEC50: 5.97
Influenza A virus [10]
  Activity: Active
[8]
  pKd: 5.46

## CC(N)C12CC3CC(CC(C3)C1)C2 (stereo unspecified) [RIMANTADINE]
Influenza A virus [2]
  pEC50: 7.30
Influenza A virus [3]
  Activity: Active
Influenza A virus [4]
  pEC50: < 4.00
[5]
  CC50 at 72 h: > 100 µM
Influenza A virus [7]
  pEC50: 7.05

From ChEMBL document CHEMBL4251694 (ACS Med Chem Lett, 2018)
